Source: PubChem BioAssay (NCI)
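How tested: cells in 96-well plates exposed to compound for 48 hours at five concentrations. GI50: concentration for 50% inhibition of growth. The concentration for full growth arrest is given as TGI.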

What was measured:
Assay in all cases: inhibition of tumour cell growth, NCI panel, 48 h
K-562 leukemia = test system: K-562 leukemia
MDA-MB-231 breast = test system: MDA-MB-231 breast
SN12C renal = test system: SN12C renal
SF-268 CNS = test system: SF-268 CNS
EKVX NSCLC = test system: EKVX NSCLC
SNB-75 CNS = test system: SNB-75 CNS
COLO 205 colon = test system: COLO 205 colon
A549 NSCLC = test system: A549 NSCLC
BT-549 breast = test system: BT-549 breast
TK-10 renal = test system: TK-10 renal

`C=C1C(=O)O[C@H]2[C@H]1CC/C(CNC(=O)c1c[nH]c3ccc(F)cc13)=C\CC[C@@]1(C)O[C@@H]21` gave a GI50 (K-562 leukemia) of 0.856 µM, a TGI (K-562 leukemia) of 6.17 µM and a GI50 (MDA-MB-231 breast) of 1.46 µM. For the same compound, the TGI (MDA-MB-231 breast) was 3.58 µM, the GI50 (SN12C renal) was 1.98 µM and the TGI (SN12C renal) was 5.42 µM. The GI50 (SF-268 CNS) was 1.78 µM, the TGI (SF-268 CNS) was 4.45 µM and the GI50 (EKVX NSCLC) was 1.68 µM. For the same compound, the TGI (EKVX NSCLC) was 5.6 µM, the GI50 (SNB-75 CNS) was 1.81 µM and the TGI (SNB-75 CNS) was 16.2 µM. The GI50 (COLO 205 colon) was 0.583 µM, the TGI (COLO 205 colon) was 2.14 µM and the GI50 (A549 NSCLC) was 4.59 µM. The TGI (A549 NSCLC) was 19.6 µM, the GI50 (BT-549 breast) was 1.19 µM and the TGI (BT-549 breast) was 2.7 µM.
`O=C(CCN1CCN(c2cnc3ccccc3n2)CC1)c1csc2ccccc12` was tested, and the GI50 (K-562 leukemia) was 28.6 µM, the TGI (K-562 leukemia) was > 100 µM and the GI50 (MDA-MB-231 breast) was 26 µM. For the same compound, the TGI (MDA-MB-231 breast) was 63 µM, the GI50 (SN12C renal) was 79.6 µM and the TGI (SN12C renal) was > 100 µM. The GI50 (SF-268 CNS) was > 100 µM, the TGI (SF-268 CNS) was > 100 µM and the GI50 (EKVX NSCLC) was 36 µM. For the same compound, the TGI (EKVX NSCLC) was > 100 µM, the GI50 (SNB-75 CNS) was 24.2 µM and the TGI (SNB-75 CNS) was 91.6 µM. It also gave a GI50 (COLO 205 colon) of 24.9 µM, a TGI (COLO 205 colon) of 59 µM and a GI50 (BT-549 breast) of 14.9 µM. For the same compound, the TGI (BT-549 breast) was 30 µM, the GI50 (TK-10 renal) was 19.5 µM and the TGI (TK-10 renal) was 42.6 µM.
`O=C1/C(=C/c2ccc(F)cc2)CCOc2ccc([N+](=O)[O-])cc21` was tested, and the GI50 (K-562 leukemia) was 0.964 µM, the TGI (K-562 leukemia) was > 100 µM and the GI50 (MDA-MB-231 breast) was 13.3 µM. It also gave a TGI (MDA-MB-231 breast) of 31.9 µM, a GI50 (SN12C renal) of 6.97 µM and a TGI (SN12C renal) of 21 µM. The GI50 (SF-268 CNS) was 22.3 µM, the TGI (SF-268 CNS) was 53.2 µM and the GI50 (EKVX NSCLC) was 16.5 µM. It also gave a TGI (EKVX NSCLC) of 30.5 µM, a GI50 (COLO 205 colon) of 18.8 µM and a TGI (COLO 205 colon) of 35 µM. It also gave a GI50 (A549 NSCLC) of 8.47 µM, a TGI (A549 NSCLC) of 23.7 µM and a GI50 (BT-549 breast) of 3 µM. For the same compound, the TGI (BT-549 breast) was 7.82 µM, the GI50 (TK-10 renal) was 3.88 µM and the TGI (TK-10 renal) was 16.1 µM.
